{"source": "patent US20260034112A1", "about": "“MULTI-CYCLIC IRAK1 AND IRAK4 INHIBITING COMPOUNDS AND USES THEREOF” (CHILDREN'S HOSPITAL MEDICAL CENTER, priority 2022, published 2026)", "key": {"[1]": {"system": "MDS/AML cell lines and patient-derived samples", "assay": "Clonogenic assay (colony formation in methylcellulose)", "type": "cell-based, human", "conditions": "for Inhibition of colony formation: MDSL, TF1, AML1714, AML1294, methylcellulose"}, "[2]": {"conditions": "early phase trials, cited from earlier work"}, "[3]": {"system": "NF-kB activity upon TLR2 stimulation with PAM3CSK4 in THP1-Blue NF-kB SEAP reporter cells", "assay": "THP1-Blue NF-kB SEAP reporter assay, TLR2 stimulation with PAM3CSK4", "type": "cell-based, human"}, "[4]": {"system": "IRAK1 phosphorylation in MDS/AML cells", "assay": "Immunoblotting for phospho-IRAK1", "type": "cell-based, human", "conditions": "MDSL cells and patient-derived AML(1714), 10 μM, 24 hours"}, "[5]": {"system": "NF-kB activity upon IL-1β stimulation (IL-1R) in THP1 NF-kB reporter cells", "assay": "THP1 NF-kB reporter assay, IL-1β stimulation", "type": "cell-based, human", "conditions": "for IC50: Homo sapiens"}, "[6]": {"system": "THP1 and MDSL cells", "assay": "Growth curves with IRAK4 inhibitors", "type": "cell-based, human", "conditions": "IRAK1KO versus WT MDSL (10 μM) and THP1 (20 μM)"}, "[7]": {"conditions": "Homo sapiens, THP-1, THP1 NF-kB reporter cells, read-out: IC50 vs. Pam3CSK4 (TLR2-mediated NF-kB activation)"}, "[8]": {"conditions": "THP1 NF-kB reporter cells, result in words"}}, "note": "Where two headings read alike, the source gives them in different places."}
{"smiles": "Cc1cc(-c2nc(C(=O)Nc3cc4oc(N5CCOCC5)nc4nc3N3CC[C@@H](O)C3)co2)ccn1", "note": "[CA-4948, emavusertib]", "values": [{"measurement": "Sensitivity of IRAK1KO MDS/AML cells (growth, colony formation)", "setting": "[1]; IRAK1KO versus WT THP1 and MDSL cells", "value": "more sensitive"}, {"measurement": "Inhibition of colony formation", "setting": "[1]", "value": "dose-dependent, yet incomplete, inhibition of colony formation"}, {"measurement": "Complete or partial response rates", "setting": "[2]; HR-MDS and AML patients", "value": "~40", "unit": "%"}, {"measurement": "AML patients with spliceosome mutations reaching CR or CRh", "setting": "[2]", "value": 40, "unit": "%"}, {"measurement": "HR-MDS patients achieving a CR", "setting": "[2]", "value": 57, "unit": "%"}, {"measurement": "IC50", "setting": "[3]; [7]", "value": 500, "unit": "nM"}, {"measurement": "IRAK1 phosphorylation", "setting": "[4]", "value": "increased IRAK1 phosphorylation"}]}
{"smiles": "CC[C@@H]1[C@H](F)C(=O)N[C@@H]1COc1nccc2cc(C(N)=O)c(OC)cc12", "note": "[PF-06650833, Zimlovisertib]", "values": [{"measurement": "Inhibition of colony formation", "setting": "[1]", "value": "inhibition of colony formation by MDSL and TF1 cells but was less effective at suppressing the patient-derived AML samples"}, {"measurement": "IC50", "setting": "[5]; THP-1, THP1 NF-kB reporter cells, read-out: IC50 vs. IL-1β (NF-kB activation)", "value": 5.7, "unit": "nM"}, {"measurement": "IC50", "setting": "[5]; THP-1, Table 1, unit nM, read-out: THP-1 NFkB IL1B IC50", "value": 678, "unit": "nM"}, {"measurement": "Span (extent of suppression of signaling through the IL-1R)", "setting": "[5]; THP1 NF-kB reporter cells, IL-1β", "value": 75, "unit": "%"}, {"measurement": "Suppression of NF-kB signaling through the IL-1 receptor", "setting": "[5]; [8]", "value": "do not fully suppress"}, {"measurement": "LOG (IL1B)", "setting": "[5]; Table 1, log of IL1B IC50", "value": 2.83}, {"measurement": "IC50", "setting": "[3]; [7]", "value": 7.2, "unit": "nM"}, {"measurement": "IC50", "setting": "[3]; Homo sapiens, THP-1, Table 1, unit nM, read-out: THP-1 NFkB PAM IC50", "value": 496, "unit": "nM"}, {"measurement": "IC50", "setting": "[3]; THP1 NF-kB reporter cells, read-out: IC50 vs. Pam3CSK4 (TLR2-mediated NF-kB activation)", "value": 7, "unit": "nM"}, {"measurement": "Suppression of NF-kB signaling through TLR2", "setting": "[3]; [8]", "value": "fully suppress"}, {"measurement": "LOG (PAM)", "setting": "[3]; Table 1, log of PAM IC50", "value": 2.70}, {"measurement": "Sensitivity of IRAK1KO MDS/AML cells (growth curves)", "setting": "[6]", "value": "A similar effect was also observed"}]}
